Values joined by “and” are separate entries in the source; they are usually repeats but may differ in a detail not shown here. Equal values may be shown once. Read-outs that look alike come from different tables or passages of the source. Square brackets hold non-standard residues; d marks the D form. Ends that are not written are not given here. * marks the point of attachment. pY = N[C@@H](Cc1ccc(OP(=O)(O)O)cc1)C(=O)O; pCinn = not defined here; NHBn = c1ccc(CN*)cc1
Experiments:
[1] = target: T1, Stat3 (Homo sapiens, UniProt P40763); test: Stat3 SH2 domain affinity, fluorescence polarization; type: binding; details: for fold loss in affinity: relative to compound 21; for fold weaker / loss in affinity: relative to compound 28
T1 sequence (P40763 whole entry, species assumed, the tested form may be a part): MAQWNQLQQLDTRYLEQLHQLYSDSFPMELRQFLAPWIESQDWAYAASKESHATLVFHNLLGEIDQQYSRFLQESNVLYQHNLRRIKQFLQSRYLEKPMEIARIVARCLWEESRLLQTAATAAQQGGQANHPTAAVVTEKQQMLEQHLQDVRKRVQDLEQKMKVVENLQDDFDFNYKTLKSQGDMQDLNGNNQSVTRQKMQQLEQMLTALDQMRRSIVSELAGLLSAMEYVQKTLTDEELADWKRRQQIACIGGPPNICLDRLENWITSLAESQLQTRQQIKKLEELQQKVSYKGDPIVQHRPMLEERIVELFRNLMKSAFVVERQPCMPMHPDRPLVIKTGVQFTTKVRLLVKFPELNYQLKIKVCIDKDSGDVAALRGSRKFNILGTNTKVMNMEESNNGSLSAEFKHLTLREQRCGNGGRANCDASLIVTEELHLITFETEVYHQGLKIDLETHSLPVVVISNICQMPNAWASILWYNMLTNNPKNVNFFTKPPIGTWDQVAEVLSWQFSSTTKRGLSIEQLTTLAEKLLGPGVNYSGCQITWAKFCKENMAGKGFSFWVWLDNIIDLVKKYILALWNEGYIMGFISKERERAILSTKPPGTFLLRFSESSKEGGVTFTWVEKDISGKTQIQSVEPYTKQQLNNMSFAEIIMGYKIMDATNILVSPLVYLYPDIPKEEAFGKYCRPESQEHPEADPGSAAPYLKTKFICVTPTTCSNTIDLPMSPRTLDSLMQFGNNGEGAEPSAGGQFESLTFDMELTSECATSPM

[2] = target: T1, Stat3; details: cited from earlier work
[3] = lead phosphopeptides, ref Coleman et al.[16]

7: XXX-Leu-Pro-Gln-Thr-NH2 with XXX = Ac-pTic; drawing shows XXX only [Compound 7]
IC50 ([1]; fluorescence polarization): > 100 µM

Ac-[pY]LPQ-NH2 [Compound 3]
IC50 [2, 3]: 0.856 ± 0.041 µM

O=C(O)CCCNC(=O)[C@@H]1Cc2cccc3c2N1C(=O)[C@@H](NC(=O)/C=C/c1ccc(OP(=O)(O)O)cc1)CC3 [Compound 24, pCinn-Haic-Gaba]
fold loss in affinity [1]: 5 fold

CS(=O)(=O)CC[C@H](NC(=O)[C@@H]1Cc2cccc3c2N1C(=O)[C@@H](NC(=O)/C=C/c1ccc(OP(=O)(O)O)cc1)CC3)C(N)=O [Compound 35, pCinn-Haic-Met(O2)-NH2]
fold weaker / loss in affinity [1]: ~10 fold

pCinn-Leu-Pro-Gln-NHBn ([pCinn]LPQ-NHBn; reading uncertain; also: printed as pCinn-Leu-Pro-Gln-NHBn) [Compound 17]
IC50 ([2]; ref [69]): 0.138 ± 0.008 µM

Ac-Tyr(PO3H2)-Leu-Pro-Gln-Thr-NH2 (Ac-[pY]LPQT-NH2; SMILES CC(=O)N[C@@H](Cc1ccc(OP(=O)(O)O)cc1)C(=O)N[C@@H](CC(C)C)C(=O)N1CCC[C@H]1C(=O)N[C@@H](CCC(N)=O)C(=O)N[C@H](C(N)=O)[C@@H](C)O) [Compound 2]
IC50 [2, 3]: 0.74 µM and 0.739 µM

NC(=O)[C@@H]1Cc2cccc3c2N1C(=O)[C@@H](NC(=O)/C=C/c1ccc(OP(=O)(O)O)cc1)CC3 [Compound 31, pCinn-Haic-NH2]
fold weaker ([1]; relative to compound 24): 42 fold
fold weaker / loss in affinity [1]: 150 fold

C[S+]([O-])CC[C@H](NC(=O)[C@@H]1Cc2cccc3c2N1C(=O)[C@@H](NC(=O)/C=C/c1ccc(OP(=O)(O)O)cc1)CC3)C(N)=O (stereo partly shown) [Compound 34, pCinn-Haic-Met(O)-NH2]
fold weaker / loss in affinity [1]: ~10 fold

C[C@H](NC(=O)[C@@H]1Cc2cccc3c2N1C(=O)[C@@H](NC(=O)/C=C/c1ccc(OP(=O)(O)O)cc1)CC3)C(N)=O [Compound 32, pCinn-Haic-Ala-NH2]
activity / affinity for Stat3 in words [1]: micromolar range

NC(=O)CC[C@H](NC(=O)[C@@H]1Cc2cccc3c2N1C(=O)[C@@H](NC(=O)/C=C/c1ccc(OP(=O)(O)O)cc1)CC3)C(=O)O [Compound 26, pCinn-Haic-Gln-OH]
fold loss in affinity [1]: 2 fold

Ac-Tyr(PO3H2)-Leu-Pro-Gln-NHBn (Ac-[pY]LPQ-NHBn; SMILES CC(=O)N[C@@H](Cc1ccc(OP(=O)(O)O)cc1)C(=O)N[C@@H](CC(C)C)C(=O)N1CCC[C@H]1C(=O)N[C@@H](CCC(N)=O)C(=O)NCc1ccccc1) [Compound 4]
IC50 [2, 3]: 0.409 ± 0.015 µM

NC(=O)CC[C@H](NC(=O)[C@@H]1CC[C@@H]2CC[C@H](NC(=O)/C=C/c3ccc(OP(=O)(O)O)cc3)C(=O)N21)C(=O)NCc1ccccc1 [Compound 18, pCinn-(3S,6S,9S)-ABN-Gln-NHBn]
fold lower affinity ([1]; relative to Leu-Pro analogue 17): 4 fold

— PMC2735258 (Journal of medicinal chemistry, 2009)
